Measured values reported in patent US4876260A, “Oxathiolanes” (State of Israel, Israel Institute of Biological Research, priority 1988, dated 1989).

Legend:
[1] = biological target: T1, M1 muscarinic receptors (3H-PZ sites, frontal cortex) (Rattus norvegicus, UniProt P08482); test: Displacement of 3H-PZ from rat frontal cortex homogenate; format: binding; settings: for Ki: (a') frontal cortex, read-out: Ki(3H-PZ); for a':c', Ki(3H-PZ):Ki(3H-CD): (g) frontal cortex ratio
T1 sequence (P08482 1-460): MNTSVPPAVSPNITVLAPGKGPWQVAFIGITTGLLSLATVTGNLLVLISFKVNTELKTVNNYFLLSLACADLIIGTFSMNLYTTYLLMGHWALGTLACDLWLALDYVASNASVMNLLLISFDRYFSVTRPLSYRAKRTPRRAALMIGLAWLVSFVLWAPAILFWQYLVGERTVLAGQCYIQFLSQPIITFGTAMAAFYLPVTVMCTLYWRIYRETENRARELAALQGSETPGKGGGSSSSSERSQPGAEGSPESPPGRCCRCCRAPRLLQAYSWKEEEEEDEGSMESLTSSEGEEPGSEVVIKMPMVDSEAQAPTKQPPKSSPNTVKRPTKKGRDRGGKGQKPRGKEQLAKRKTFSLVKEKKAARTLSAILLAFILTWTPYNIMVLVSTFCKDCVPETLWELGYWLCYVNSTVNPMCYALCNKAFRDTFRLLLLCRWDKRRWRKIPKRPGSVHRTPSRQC

[2] = biological target: T2, M1 muscarinic receptors (3H-PZ sites, forebrain) (Rattus norvegicus, UniProt P08482); test: Displacement of 3H-Pirenzepine (3H-PZ, selective M1 antagonist) from rat forebrain homogenate; format: binding; settings: for M1 selectivity (in words): from Tables 2A, 2B, 2C
T2 sequence (P08482 1-460): T1 sequence (P08482 1-460)

[3] = biological target: muscarinic receptors (3H-QNB sites, frontal cortex); format: binding, rat; settings: (b') frontal cortex
mice = test: Pharmacodynamic profile and general toxicity in mice; format: in vivo, CD-1 mice
Method: Male white mice of the CD-1 strain supplied by Charles River Ltd. (U.K.) were used throughout. An acclimatization period of at least three days was allowed between arrival and commencement of a particular experimental series. The animals were fed a complete commercial pelleted rodent diet without restriction during the acclimatization and study periods. Animals had free access to tap water. Body weights during testing were mostly within 20-28 g.
Test materials were prepared as aqueous solutions in physiological saline (0.9% NaCl), up to a maximum concentration of 10 mg./ml. All materials were freshly prepared on the morning prior to each dosing session. Dosages were expressed gravimetrically (mg./kg.), in terms of the materials as received.
Groups of mice (mostly n=5) received either i.v. or oral administration of the test materials at various dose levels. Dose volumes appropriate for respective dose levels selected, were determined for each animal according to body weights on the day of dosing. Any behavioral changes occurring during one to two hours after administration, as well as incidence of death up to 24 hours after dosing were recorded.

[4] = biological target: muscarinic receptors (3H-CD sites, frontal cortex); test: Displacement of 3H-CD from rat frontal cortex homogenate; format: binding; settings: (c') frontal cortex
[5] = biological target: T3, muscarinic receptors (3H-QNB sites, cerebellum, mainly M2) (Rattus norvegicus, UniProt P10980); test: biochemical; format: binding; settings: Ki(3H-QNB), (b") cerebellum
T3 sequence (P10980 1-466): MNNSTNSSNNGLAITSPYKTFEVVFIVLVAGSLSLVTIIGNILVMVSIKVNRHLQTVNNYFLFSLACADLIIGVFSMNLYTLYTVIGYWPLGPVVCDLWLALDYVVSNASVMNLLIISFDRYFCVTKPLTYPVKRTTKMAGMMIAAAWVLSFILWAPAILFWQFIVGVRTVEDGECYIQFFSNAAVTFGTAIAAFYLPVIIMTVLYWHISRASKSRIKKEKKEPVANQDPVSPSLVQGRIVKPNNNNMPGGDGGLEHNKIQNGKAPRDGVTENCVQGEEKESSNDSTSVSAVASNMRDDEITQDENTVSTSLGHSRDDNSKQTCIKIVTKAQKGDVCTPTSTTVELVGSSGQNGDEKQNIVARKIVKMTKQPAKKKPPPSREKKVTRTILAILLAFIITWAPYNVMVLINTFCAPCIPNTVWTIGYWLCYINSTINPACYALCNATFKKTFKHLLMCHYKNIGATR

[6] = tested on: muscarinic receptors (3H-QNB sites, cerebellum, mainly M2); test: biochemical; format: binding, rat; settings: for b':b": (k) Ki(3H-QNB) frontal cortex : Ki(3H-QNB) cerebellum
[7] = tested on: AF64A-induced cognitive impairment (passive avoidance); test: Step-through passive avoidance in AF64A- and saline-injected rats; format: in vivo; settings: for Retention Latency: 72 hour retention test
Text: Development of potential drugs for the treatment of Alzheimer's disease requires their evaluation in appropriate animal models for this disease. […] This hippocampal cholinergic deficiency is accompanied by statistically significant cognitive impairments (inter alia) in step-through passive avoidance (PA). The present PA experiment investigated the possibility of reversing such impairments by administration of (+)-III (AF122B).
[…] post-operation, the AF64A and saline-injected groups were randomly subdivided into two treatment sub-groups. Sub-group 1 was treated with 1 mg./kg. i.p. (+)-III (AF122B), while sub-group 2 was treated with […]. i.p. saline. The drug or saline were administered immediately after shock.

[8] = tested on: isolated guinea-pig ileum; test: Contraction of isolated guinea-pig ileum preparation
Text: (§1) From this Table, it appears that compounds (III) were not so effective in contracting the guinea pig ileum preparation.

[9] = biological target: muscarinic receptors (3H-QNB sites, M1 and M2, forebrain); format: binding, rat; settings: (b) forebrain
[10] = tested on: ACh-induced contractions of guinea-pig ileum; test: Blocking of ACh-induced contractions of isolated guinea-pig ileum; settings: listed as AF122B
Text: as §1

[11] = 10 mg/kg i.v., listed as (+)-III AF122B
[12] = 25 mg/kg i.v., listed as (+)-III AF122B
[13] = 50 mg/kg i.v., listed as (+)-III AF122B
[14] = 100 mg/kg i.v., immed = immediately
[15] = 200 mg/kg p.o., listed as (+)-III AF122B
[16] = AF64A-injected rats, 1 mg./kg. i.p.
[17] = saline-injected rats, 1 mg./kg. i.p.
[18] = 25 mg/kg i.v., listed as (±)-III AF122B
[19] = 100 mg/kg p.o., listed as (±)-III AF122B
[20] = 200 mg/kg p.o., listed as (±)-III AF122B

C[C@H]1O[C@@]2(CN3CCC2CC3)CS1(=O)=O (relative stereo) [compound 14, cis-2-methylspiro(1,3-oxathiolan-5,3')quinuclidine-3,3-dioxide]
a':b', Ki(3H-PZ):Ki(3H-QNB) [1]: 0.18
Ki [1]: 5.5 ± 0.43 µM
a':c', Ki(3H-PZ):Ki(3H-CD) [1]: 1.8
potency (in words) ([2]; compared with (±)-cis-(II)): losing some of its potency
M1 selectivity (in words) [2]: high M1 selectivity
M1 selectivity (in words) ([2]; listed as (±)-cis-(II)-sulfone): still preserved an outstanding profile as judged by its M1 selectivity (ratio a':c')
Ki [3]: 34.1 ± 3 µM
Analgesia (nonresponsiveness to tail pinch), No. affected/total treated (mice; 50 mg/kg i.v.): 3/5
Mortality, No. dead/total treated (mice; 50 mg/kg i.v.): 0/5
Analgesia (nonresponsiveness to tail pinch), No. affected/total treated (mice; 100 mg/kg i.v.): 5/5
Mortality, No. dead/total treated (mice; 100 mg/kg i.v.): 0/5
Mortality, No. dead/total treated (mice; 100 mg/kg p.o.): 0/5
Analgesia (nonresponsiveness to tail pinch), No. affected/total treated (mice; 200 mg/kg p.o.): 5/5
Mortality, No. dead/total treated (mice; 200 mg/kg p.o.): 0/5
Ki [4]: 3.06 ± 2 µM
Ki [5]: 44.1 ± 6.5 µM
a':b" ([6]; (i) Ki(3H-PZ) frontal cortex : Ki(3H-QNB) cerebellum): 2.6
b':b" [6]: 0.77

CC1OCC2(CN3CCC2CC3)S1 (single isomer, unassigned) [compound 10, 2-methylspiro(1,3-oxathiolan-4,3')quinuclidine]
Ki [1]: 7.4 µM
Convulsive seizures, No. affected/total treated (mice; 10 mg/kg i.v.): 2/8
Mortality, time after drug administration (mice; 10 mg/kg i.v.): 5 s
Respiratory distress, No. affected/total treated (mice; 10 mg/kg i.v.): 1/8
Tremors, No. affected/total treated (mice; 10 mg/kg i.v.): 2/8
Analgesia (nonresponsiveness to tail pinch), No. affected/total treated (mice; [11]): 5/8
Mortality, No. dead/total treated (mice; [11]): 1/8
Convulsive seizures, No. affected/total treated (mice; [12]): 5/5
Mortality, No. dead/total treated (mice; [12]): 4/5
Mortality, time after drug administration (mice; [12]): 30 s
Respiratory distress, No. affected/total treated (mice; [12]): 1/5
Tremors, No. affected/total treated (mice; [12]): 4/5
Mortality, No. dead/total treated (mice; [13]): 2/2
Mortality, time after drug administration (mice; [13]): 5 s
Mortality, time after drug administration (mice; [14]): immed
Mortality, No. dead/total treated (mice; 100 mg/kg i.v., listed as (+)-III AF122B): 2/2
Analgesia (nonresponsiveness to tail pinch), No. affected/total treated (mice; 100 mg/kg p.o.): 5/5
Respiratory distress, No. affected/total treated (mice; 100 mg/kg p.o.): 1/5
Vocalization, No. affected/total treated (mice; 100 mg/kg p.o.): 1/4
Mortality, No. dead/total treated (mice; 100 mg/kg p.o., listed as (+)-III AF122B): 0/5
Tremors, No. affected/total treated (mice; 200 mg/kg p.o.): 3/5
Altered motor activity (mice; [15]): a+h
Analgesia (nonresponsiveness to tail pinch), No. affected/total treated (mice; [15]): 5/5
Convulsive seizures, No. affected/total treated (mice; [15]): 5/5
Mortality, No. dead/total treated (mice; [15]): 0/5
Respiratory distress, No. affected/total treated (mice; [15]): 4/5
Vocalization, No. affected/total treated (mice; [15]): 2/5
Passive avoidance retention (in words) [7, 16]: improved the passive avoidance retention of AF64A-injected rats
Retention Latency [7, 16]: 549.5 ± 29.1 s
Effect on retention latency (in words) ([7]; AF64A-injected rats, 1 mg./kg. i.p., p<0.01): prolonged the retention latency of AF64A-injected rats
Initial latency (training) (in words) ([7]; between any of the groups): No significant differences were found during training
Effect on retention latency (in words) [7, 17]: no significant effect on the retention latency of saline-injected rats
Retention Latency [7, 17]: 552 ± 33.7 s
Contraction of guinea pig ileum (in words) ([8]; listed as (+)-AF122B): active enantiomer

CC1OCC2(CN3CCC2CC3)S1 (stereo not shown) [compound 7, 2-methylspiro(1,3-oxathiolan-4,3')quinuclidine]
Ki [9]: 7 ± 0.5 µM
a:b, Ki(3H-PZ):Ki(3H-QNB) [2]: 0.17
Ki ([2]; (a) forebrain): 1.22 ± 0.4 µM
M1 selectivity (in words) ([2]; listed as Compound (III)): M1 selectivity is preserved even in the mixture of the geometrical isomers

CC1OCC2(CN3CCC2CC3)S1 (stereo not shown) [compound 8, 2-methylspiro(1,3-oxathiolan-4,3')quinuclidine]
a':b', Ki(3H-PZ):Ki(3H-QNB) [1]: 0.11
Ki [1]: 1.66 ± 0.24 µM
a':c', Ki(3H-PZ):Ki(3H-CD) [1]: 0.7
Ki [3]: 15.3 ± 2.2 µM
Mortality, No. dead/total treated (mice; 10 mg/kg i.v., listed as (±)-III AF122B): 0/3
Analgesia (nonresponsiveness to tail pinch), No. affected/total treated (mice; [18]): 2/5
Convulsive seizures, No. affected/total treated (mice; [18]): 5/5
Exophthalmus, No. affected/total treated (mice; [18]): 2/5
Mortality, No. dead/total treated (mice; [18]): 3/5
Respiratory distress, No. affected/total treated (mice; [18]): 2/5
Tremors, No. affected/total treated (mice; [18]): 5/5
Convulsive seizures, No. affected/total treated (mice; 50 mg/kg i.v.): 2/2
Mortality, No. dead/total treated (mice; 50 mg/kg i.v.): 2/2
Mortality, time after drug administration (mice; 50 mg/kg i.v.): 5 s
Tremors, No. affected/total treated (mice; 50 mg/kg i.v.): 2/2
Mortality, No. dead/total treated (mice; 50 mg/kg p.o.): 0/5
Mortality, No. dead/total treated (mice; 100 mg/kg i.v.): 2/2
Mortality, time after drug administration (mice; [14]): immed
Analgesia (nonresponsiveness to tail pinch), No. affected/total treated (mice; 100 mg/kg p.o.): 4/4
Convulsive seizures, No. affected/total treated (mice; 100 mg/kg p.o.): 4/4
Vocalization, No. affected/total treated (mice; 100 mg/kg p.o.): 1/4
Mortality, No. dead/total treated (mice; [19]): 1/4
Tremors, No. affected/total treated (mice; [19]): 4/4
Mortality, time after drug administration (mice; 100 mg/kg p.o., m = minutes): 15 m
Analgesia (nonresponsiveness to tail pinch), No. affected/total treated (mice; 200 mg/kg p.o.): 4/4
Respiratory distress, No. affected/total treated (mice; 200 mg/kg p.o.): 4/4
Vocalization, No. affected/total treated (mice; 200 mg/kg p.o.): 2/4
Convulsive seizures, No. affected/total treated (mice; [20]): 4/4
Mortality, No. dead/total treated (mice; [20]): 4/4
Tremors, No. affected/total treated (mice; [20]): 4/4
Mortality, time after drug administration (mice; 200 mg/kg p.o., m = minutes): 15 m
Ki [4]: 2.3 µM
Effect on ACh-induced contractions (in words) [10]: consistently blocked ACh-induced contractions
Desensitization [8]: desensitization that was observed
Blocking of the contractions by atropine (remarks) ([8]; listed as AF122B): the contractions were only partially blocked by atropine
Contraction of guinea pig ileum (in words) ([8]; listed as AF122B): contracted the ileum muscle
Ki [5]: 21.1 ± 7.6 µM
b':b" [6]: 0.73
